Data as given in patent US20080033026A1, “Antimicrobial compositions, methods and systems” (priority 2006, published 2008).

Columns and labels:
Assay type in all cases: cell-based
all organisms = assay: Time kill test, all organisms of Example 2; conditions: even after 10 minutes, all concentrations (0.01, 0.05 and 0.1%)
Protocol: The assessment of efficacy of 9-decenoic acid against a spectrum of microorganisms was determined using the American Society for Testing and Materials (ASTM) procedure entitled “Standard Test Method for the Assessment of Microbiocidal Activity of Test Materials Using a Time-Kill Procedure,” October 1998. This procedure incorporates the recommendations described in the “Manual of Clinical Microbiology,” 5th ed., edited by A. B. Balows et al., ASM, Washington, and is directed by the Federal Register, June 1994.
Challenge organisms were prepared as follows. Cultures of the following organisms were obtained: Staphylococcus aureus (ATCC 6538), Pseudomonas aeruginosa (ATCC 15442), Staphylococcus epidermidis (ATCC 12228), Klebsiella pneumoniae (ATCC 4352), Escherichia coli 0157:H7 (ATCC 43895) and Candida albicans (ATCC 10231). The stock cultures were transferred to sterile tubes and sterile tryptic soy broth (TSB) was added to the cultures. […]
Concentrated 9-decenoic acid (97%) was diluted in filter sterilized isopropanol to yield a 25,000 ppm stock solution. […] The pH was determined for each dilution; pH values ranged from 4.4-4.1. […]
At each exposure sample time, a 1.0 ml aliquot of the inoculated 9-decenoic acid suspension was transferred to 9.0 ml of D/E Neutralizing Broth. […] The plates were enumerated, recorded and log kill determined for each time point. […]

[1] = tested on: Staphylococcus epidermidis (ATCC 12228); assay: MIC and MBC determination (broth dilution); conditions: subculture on TSA
Protocol: (§1) The determination of the MIC and MBC of 9-decenoic acid conformed to the procedure printed in the Federal Register, June 1994 and the present NCCLS M11-A4 protocol. Challenge organisms were prepared as follows. The MIC and MBC of 9-decenoic acid and the methyl ester of 9-decenoic acid were determined for the following challenge organisms: Staphylococcus aureus (ATCC 6538), Pseudomonas aeruginosa (ATCC 15442), Staphylococcus epidermidis (ATCC 12228), Klebsiella pneumoniae (ATCC 4352), Escherichia coli 0157:H7 (ATCC 43895) and Candida albicans (ATCC 10231). Stock cultures of each organism were transferred onto suitable culture media, Mueller-Hinton Agar (MHA) plates, and incubated for 24 hours (+2 hours) at 37° C. (+2° C.). On the day of the test, the top of at least three to five well-isolated colonies were transferred via wire loop to a tube containing 4 to 5 ml of Trypticase Soy Broth (TSB). The TSB culture was incubated for 2 to 6 hours and turbidity was adjusted with sterile saline to achieve the turbidity of a McFarland 0.5 Standard.
(§2) The concentrated 9-decenoic acid (97%) was diluted in Mueller-Hinton Broth (MHB) to yield a 25,000 ppm stock solution of the 9-decenoic acid. For each organism, 12 dilutions of the 9-decenoic acid in MHB were prepared ranging from 0.25% to 0.00049%. The test solution of the methyl ester of 9-decenoic acid was formulated in the same manner.
(§3) A 2-ml aliquot of appropriately diluted 9-decenoic acid solution or methyl ester of 9-decenoic acid was placed in each tube. Each tube was inoculated with 0.05 ml of a 1:10 dilution of one challenge organism. Tubes were incubated at 37° C. (±2° C.) for 20-24 hours and observed for microbial growth visually and by spectrophotometer. […] (±2° C.) for 20-24 hours and visually observed for growth.
(§4) Controls were run for sterility, viability and organism confirmation. It was determined that all cultures were viable and pure.
(§5) The MBC was defined as the concentration of 9-decenoic acid or the methyl ester of 9-decenoic acid that completely eradicated viable organisms from the test system.

[2] = tested on: Escherichia coli 0157:H7 (ATCC 43895); assay: MIC and MBC determination (broth dilution)
Protocol: as §1, §2, §3, §4, §5

[3] = tested on: Klebsiella pneumoniae (ATCC 4352); assay: MIC and MBC determination (broth dilution); conditions: Mueller-Hinton Broth, 20-24 h, 37° C.
Protocol: as §1, §2, §3, §4, §5

[4] = tested on: Pseudomonas aeruginosa (ATCC 15442); assay: MIC and MBC determination (broth dilution); conditions: Mueller-Hinton Broth, 20-24 h, 37° C.
Protocol: as §1, §2, §3, §4, §5

[5] = tested on: Candida albicans (ATCC 10231); assay: MIC and MBC determination (broth dilution)
Protocol: as §1, §2, §3, §4, §5

[6] = Mueller-Hinton Broth, 20-24 h, 37° C.

For `C=CCCCCCCCC(=O)OC` [Methyl ester of 9-decenoic acid, methyl ester of 9-decenoic acid], the log reduction (all organisms) was under 1 log, the MBC [1] was 0.25% and the MIC [2, 6] was 0.125%. It also gave an MBC ([2]; subculture on TSA) of 0.125%, an MIC [3] of 0.0625% and an MIC [4] of 0.0625%. For the same compound, the MIC [5, 6] was 0.0156% and the MBC ([5]; subculture on TSA) was 0.0156%.
